In patent publication US8957114B2, “Formulations, salts and polymorphs of transnorsertraline and uses thereof” (Sunovion Pharmaceuticals Inc., priority 2009, dated 2015):
Read-outs that look alike come from different tables or passages of the source. Marks after values point to notes of the source that are not given here.

Tests used:
[1] = Moisture content by coulometric Karl Fischer titration (KF); type: physicochemical
Procedure: (§1) Each salt was analyzed by coulometric titration using an EM Scientific Aquastar C3000 titrator to determine water content. […] Each salt was analyzed using a Perkin Elmer TGA 7 Thermal Gravimetric Analyzer (TGA). […] Moisture sorption isotherms for each salt were generated using the VTI SGA-100 Symmetric Vapor Sorption Analyzer. Samples were run as received without pre-analysis drying. Equilibrium criteria were the lesser of 0.01 wt % change in 5 minutes or 180 minutes at each relative humidity (RH) step. […] Analysis was repeated for each sample in consecutive analyses (sample was not removed from analyzer). Sample sizes ranged from 18 mg to 35 mg.

[2] = VTI moisture sorption isotherm (hygroscopicity); type: physicochemical; settings: for VTI Adsorp. (% wt gain 25 to 95% RH) / VTI Desorp. (% wt loss 95 to 25% RH): 25° C.
Procedure: as §1

[3] = Solubility of transnorsertraline salts in de-ionized water (HPLC); settings: for Solubility in Freebase Equivalents mgA/mL: de-ionized water, ambient, shaken up to nine days until equilibrium; for pH: saturated solution in de-ionized water
Procedure: For each salt, saturated solutions with excess solids in deionized water were prepared in 20 mL clear glass scintillation vials with screw caps. All samples were shaken at 300 rpm at ambient conditions for up to nine days until equilibrium was achieved. Solubility was determined using a HPLC method (Table 5).

[4] = Solubility of transnorsertraline salts in aqueous buffer systems (SGF, acetate buffer pH 4.5, SIF; HPLC); type: physicochemical
Procedure: Saturated solutions with excess solids were prepared in 20 mL clear glass scintillation vials. Simulated gastric fluid (pH 1.0, ˜0.1N HCl, 0.03M NaCl, no enzymes), simulated intestinal fluid (pH 6.8, 0.05M KH2PO4, ˜0.02N NaOH, no enzymes), and acetate buffer (pH 4.5, 0.02M sodium acetate, 0.03M acetic acid) were prepared in accordance with USP28 (USP28 Test Solutions p2855, Volumetric Solutions p2863). […] Solubility was determined using a HPLC method.

[5] = Thermal gravimetric analysis (TGA) weight loss; type: physicochemical; settings: heated 25° C. to 325° C. at 10° C./min
Procedure: The sixteen salts of transnorsertraline of Example 6.14 were analyzed for moisture content and hygroscopicity. Each salt was analyzed by coulometric titration using an EM Scientific Aquastar C3000 titrator to determine water content. Sample size ranged from 18 mg to 134 mg. Each salt was analyzed using a Perkin Elmer TGA 7 Thermal Gravimetric Analyzer (TGA). […] Moisture sorption isotherms for each salt were generated using the VTI SGA-100 Symmetric Vapor Sorption Analyzer. Samples were run as received without pre-analysis drying. Equilibrium criteria were the lesser of 0.01 wt % change in 5 minutes or 180 minutes at each relative humidity (RH) step. Temperature was fixed at 25° C. and the relative humidity steps (25 to 95% to 25%) were in 5% increments. Analysis was repeated for each sample in consecutive analyses (sample was not removed from analyzer). Sample sizes ranged from 18 mg to 35 mg.

[6] = 0.05M Acetate Buffer (pH 4.5), ambient, up to nine days
[7] = Simulated Gastric Fluid (no enzymes), ambient, up to nine days
[8] = Simulated Intestinal Fluid (pH 6.8, no enzymes), ambient, up to nine days
[9] = saturated solution in 0.05M Acetate Buffer (pH 4.5)
[10] = saturated solution in Simulated Gastric Fluid
[11] = saturated solution in Simulated Intestinal Fluid
[12] = repeated consecutive analysis (second line)
[13] = first analysis, listed as Acetate lot 1
[14] = first analysis, listed as Acetate lot 2
[15] = first analysis, listed as Acetate lot 3
[16] = repeated consecutive analysis (second line), listed as Acetate lot 1
[17] = repeated consecutive analysis (second line), listed as Acetate lot 2
[18] = repeated consecutive analysis (second line), listed as Acetate lot 3
[19] = first analysis, listed as L-malate lot 1
[20] = first analysis, listed as L-malate lot 2
[21] = first analysis, listed as L-malate lot 3

Row | Compound | Initial KF (% H2O) [1] [% H2O] | VTI Adsorp. (% wt gain 25 to 95% RH) ([2]; first analysis) [% wt gain] | VTI Desorp. (% wt loss 95 to 25% RH) ([2]; first analysis) [% wt loss] | Solubility in Freebase Equivalents mgA/mL [3] [mgA/mL] | pH [3] | Solubility in Freebase Equivalents mgA/mL [4, 6] [mgA/mL] | Solubility in Freebase Equivalents mgA/mL [4, 7] [mgA/mL] | Solubility in Freebase Equivalents mgA/mL [4, 8] [mgA/mL] | pH [4, 9] | pH [4, 10] | pH [4, 11] | TGA (% wt loss) [5] [% wt loss] | VTI Adsorp. (% wt gain 25 to 95% RH) [2, 12] [% wt gain] | VTI Desorp. (% wt loss 95 to 25% RH) [2, 12] [% wt loss] | also measured
1 | Tosylate | 0.09 | 0.06 | 0.06 | 0.53 | 6.16 | 0.63 | 0.06 | 0.21 | 4.56 | 1.10 | 6.78 | 0.16 | – | – | –
2 | Maleate | 0.06 | 0.10 | 0.09 | 1.88 | 3.98 | 1.23 | 0.08 | 0.28 | 4.52 | 1.25 | 6.47 | 0.02 | 0.08 | 0.08 | –
3 | Transnorsertraline Acetate | 0.03 | 0.07 | 0.08 | – | 6.31 | – | – | – | 4.79 | 1.26 | 6.63 | 0.53 | 0.08 | 0.09 | Initial KF (% H2O) ([1]; listed as Acetate lot 1): 0.03 % H2O; Initial KF (% H2O) ([1]; listed as Acetate lot 2): 0.07 % H2O; Initial KF (% H2O) ([1]; listed as Acetate lot 3): 0.05 % H2O; VTI Adsorp. (% wt gain 25 to 95% RH) [2, 13]: 0.07 % wt gain; VTI Desorp. (% wt loss 95 to 25% RH) [2, 13]: 0.08 % wt loss; VTI Adsorp. (% wt gain 25 to 95% RH) [2, 14]: 0.22 % wt gain; VTI Desorp. (% wt loss 95 to 25% RH) [2, 14]: 0.23 % wt loss; VTI Adsorp. (% wt gain 25 to 95% RH) [2, 15]: 0.33 % wt gain; VTI Desorp. (% wt loss 95 to 25% RH) [2, 15]: 0.38 % wt loss; VTI Adsorp. (% wt gain 25 to 95% RH) [2, 16]: 0.08 % wt gain; VTI Desorp. (% wt loss 95 to 25% RH) [2, 16]: 0.09 % wt loss; VTI Adsorp. (% wt gain 25 to 95% RH) [2, 17]: 0.23 % wt gain; VTI Desorp. (% wt loss 95 to 25% RH) [2, 17]: 0.23 % wt loss; VTI Adsorp. (% wt gain 25 to 95% RH) [2, 18]: 0.35 % wt gain; VTI Desorp. (% wt loss 95 to 25% RH) [2, 18]: 0.35 % wt loss; Solubility in Freebase Equivalents mgA/mL ([4]; pH 1): 0.07 mgA/mL; Solubility in Freebase Equivalents mgA/mL ([4]; pH 4.5): 3.12 mgA/mL; Solubility in Freebase Equivalents mgA/mL ([4]; pH 6.8): 0.25 mgA/mL; TGA (% wt loss) ([5]; listed as Acetate lot 1): 0.43 % wt loss
4 | Benzoate | 0.27 | 0.10 | 0.10 | – | – | – | – | – | – | – | – | 0.05 | 0.08 | 0.07 | –
5 | Fumarate | 0.40 | 0.18 | 0.17 | 0.52 | 5.30 | 0.69 | <0.01 | 0.30 | 4.60 | 1.25 | 6.63 | 0.81 | 0.17 | 0.16 | –
6 | Transnorsertraline L-Malate | 0.05 | 0.08 | 0.08 | – | 4.15 | – | – | – | 4.42 | 1.15 | 6.68 | 0.07 | 0.06 | 0.06 | Initial KF (% H2O) ([1]; listed as L-malate lot 1): 0.05 % H2O; Initial KF (% H2O) ([1]; listed as L-malate lot 2): 0.08 % H2O; Initial KF (% H2O) ([1]; listed as L-malate lot 3): 0.04 % H2O; VTI Adsorp. (% wt gain 25 to 95% RH) [2, 19]: 0.08 % wt gain; VTI Desorp. (% wt loss 95 to 25% RH) [2, 19]: 0.08 % wt loss; VTI Adsorp. (% wt gain 25 to 95% RH) [2, 20]: 0.06 % wt gain; VTI Desorp. (% wt loss 95 to 25% RH) [2, 20]: 0.07 % wt loss; VTI Adsorp. (% wt gain 25 to 95% RH) [2, 21]: 5.31 % wt gain; VTI Desorp. (% wt loss 95 to 25% RH) [2, 21]: 5.23 % wt loss; VTI Adsorp. (% wt gain 25 to 95% RH) ([2]; repeated consecutive analysis (second line), listed as L-malate lot 1): 0.06 % wt gain; VTI Adsorp. (% wt gain 25 to 95% RH) ([2]; repeated consecutive analysis (second line), listed as L-malate lot 2): 0.07 % wt gain; moisture adsorbed more than other L-malate lots ([2]; from 25 to 95% relative humidity): > 5%; Solubility in Freebase Equivalents mgA/mL ([4]; pH 1): 0.08^b mgA/mL; Solubility in Freebase Equivalents mgA/mL ([4]; pH 4.5): 1.59^b mgA/mL; Solubility in Freebase Equivalents mgA/mL ([4]; pH 6.8): 0.38 mgA/mL; TGA (% wt loss) ([5]; listed as L-malate lot 1): 0.08 % wt loss
7 | O=S(=O)(O)O [Sulfate] | 3.34 | 10.19 | 9.51 | – | – | – | – | – | – | – | – | 4.20 | 7.25 | – | –
